System: human lung cancer cell NCI-H2228
Assay: Anti-proliferative effect in human lung cancer cell NCI-H2228 (CellTiter-Glo)
Type: cell-based
Details: NCI-H2228, 72 h, cell proliferation, cultured for 3 days
Method: In this assay, the inhibitory effect of assay compounds on cell proliferation was assayed in human lung cancer cell NCI-H2228.
(1) Promega CellTiter-Glo luminescent cell viability assay kit (Promega-G7573). (2) 2104 EnVision® plate reader, PerkinElmer.
The tumor cell line was cultured in a 37° C., 5% CO2 incubator according to the above-mentioned culture conditions. Cells were passaged periodically, and cells in logarithmic growth phase were used for plating.
(1). Cells were stained with trypan blue and viable cells were counted; (2). The cell concentration was adjusted to an appropriate concentration;
(3). 90 μL of cell suspension was added to each well of the culture plate as shown in the table above, and cell-free culture medium was added to the blank control well; (4). The plate was incubated in an incubator at 37° C., 5% CO2, and 100% relative humidity overnight.
Preparation of a mother solution storage plate with 400 times the starting compound concentration: the compounds were diluted serially with DMSO from the highest concentration to the lowest concentration. The plate was prepared freshly every time it was used.
(1). 78 μL of cell culture medium was added to a 96-well plate with a V-shaped bottom. […]
(1). […] The culture plate was left at room temperature for 10 minutes to stabilize the luminescence signal; (9). The luminescent signal was detected on a 2104 EnVision plate reader. […]

- IC50: 91 nM
SMILES: Cc1cc(Nc2ncc(Cl)c(Nc3ccccc3S(=O)(=O)C(C)C)n2)c(OC(C)C)cc1C1CCN(CC(=O)NCCOc2ccc3occ(C4CCC(=O)NC4=O)c3c2)CC1 (stereo not shown) [WX001]

From patent US20230158152A1, “PROTEOLYSIS REGULATOR AND METHOD FOR USING SAME” (MEDSHINE DISCOVERY INC., priority 2020, published 2023)
